Target: PIM-2 (Homo sapiens, UniProt Q9P1W9)
Experiment: PIM-2 assay, IC50 determination (luciferase-luciferin ATP depletion, 10-point dose response)
Assay type: biochemical
Conditions: 10 nM PIM-2, 1 μM ATP, 50 μM peptide substrate, 15 minutes at room temperature

PIM-2, sequence (Q9P1W9 whole entry): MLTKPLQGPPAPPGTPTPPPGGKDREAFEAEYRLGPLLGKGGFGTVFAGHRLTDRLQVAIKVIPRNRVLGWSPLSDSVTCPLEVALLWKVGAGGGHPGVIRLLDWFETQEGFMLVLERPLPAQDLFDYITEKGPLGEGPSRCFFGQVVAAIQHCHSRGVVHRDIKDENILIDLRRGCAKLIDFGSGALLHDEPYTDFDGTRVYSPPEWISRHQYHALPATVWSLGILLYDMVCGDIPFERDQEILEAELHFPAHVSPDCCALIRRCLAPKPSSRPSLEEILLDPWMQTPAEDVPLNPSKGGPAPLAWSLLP

Structure (SMILES) | IC50
O=C(O)/C=C/c1cccc(-c2cncc(N[C@H]3CC[C@H](O)CC3)n2)c1 [compound 3, (E)-3-{3-[6-(4-Hydroxy-cyclohexylamino)-pyrazin-2-yl]-phenyl}-acrylic acid] | 265 nM
CC(C)(CN)CNc1cncc(-c2cccc(/C=C/C(=O)O)c2)n1 [compound 7, (E)-3-{3-[6-(3-Amino-2,2-dimethyl-propylamino)-pyrazin-2-yl]-phenyl}-acrylic acid] | 27 nM
O=C(O)/C=C/c1cccc(-c2cncc(NCCCO)n2)c1 [compound 18, (E)-3-{3-[6-(3-Hydroxy-propylamino)-pyrazin-2-yl]-phenyl}-acrylic acid] | 310 nM
O=C(O)/C=C/c1cccc(-c2cncc(NCCO)n2)c1 [compound 17, (E)-3-{3-[6-(2-Hydroxy-ethylamino)-pyrazin-2-yl]-phenyl}-acrylic acid] | 300 nM
O=C(O)/C=C/c1cccc(-c2cncc(N3CCCNCC3)n2)c1 [compound 27, (E)-3-[3-(6-[1,4]Diazepan-1-yl-pyrazin-2-yl)-phenyl]-acrylic acid] | 185 nM
COCCCNc1cncc(-c2cccc(/C=C/C(=O)O)c2)n1 [compound 19, (E)-3-{3-[6-(3-Methoxy-propylamino)-pyrazin-2-yl]-phenyl}-acrylic acid] | 480 nM
NCCCCNc1cncc(-c2cccc(/C=C/C(=O)O)c2)n1 [compound 5, (E)-3-{3-[6-(4-Amino-butylamino)-pyrazin-2-yl]-phenyl}-acrylic acid] | 22 nM
NC(=O)CNc1cncc(-c2cccc(/C=C/C(=O)O)c2)n1 [compound 15, (E)-3-{3-[6-(Carbamoylmethyl-amino)-pyrazin-2-yl]-phenyl}-acrylic acid] | 84 nM
CC(=O)NCCNc1cncc(-c2cccc(/C=C/C(=O)O)c2)n1 [compound 21, (E)-3-{3-[6-(2-Acetylamino-ethylamino)-pyrazin-2-yl]-phenyl}-acrylic acid] | 1020 nM
CN(C)CCCN(C)c1cncc(-c2cccc(/C=C/C(=O)O)c2)n1 [compound 14, (E)-3-(3-{6-[(3-Dimethylamino-propyl)-methyl-amino]-pyrazin-2-yl}-phenyl)-acrylic acid] | 370 nM
COCCNc1cncc(-c2cccc(/C=C/C(=O)O)c2)n1 [compound 20, (E)-3-{3-[6-(2-Methoxy-ethylamino)-pyrazin-2-yl]-phenyl}-acrylic acid] | 1200 nM
NC1CCN(c2cncc(-c3cccc(/C=C/C(=O)O)c3)n2)CC1 [compound 25, (E)-3-{3-[6-(4-Amino-piperidin-1-yl)-pyrazin-2-yl]-phenyl}-acrylic acid] | 115 nM
CN(C)CCCNc1cncc(-c2cccc(/C=C/C(=O)O)c2)n1 [compound 8, (E)-3-{3-[6-(3-Dimethylamino-propylamino)-pyrazin-2-yl]-phenyl}-acrylic acid] | 94 nM
CN(C)CCNc1cncc(-c2cccc(/C=C/C(=O)O)c2)n1 [compound 9, (E)-3-{3-[6-(2-Dimethylamino-ethylamino)-pyrazin-2-yl]-phenyl}-acrylic acid] | 99 nM
CN(C)C1CCN(c2cncc(-c3cccc(/C=C/C(=O)O)c3)n2)CC1 [compound 24, (E)-3-{3-[6-(4-Dimethylamino-piperidin-1-yl)-pyrazin-2-yl]-phenyl}-acrylic acid] | 72 nM
O=C(O)/C=C/c1cccc(-c2cncc(NCC3CCNCC3)n2)c1 [compound 4, (E)-3-(3-{6-[(Piperidin-4-ylmethyl)-amino]-pyrazin-2-yl}-phenyl)-acrylic acid] | 57 nM
NCCCNc1cncc(-c2cccc(/C=C/C(=O)O)c2)n1 [compound 6, (E)-3-{3-[6-(3-Amino-propylamino)-pyrazin-2-yl]-phenyl}-acrylic acid] | 27 nM
NC(=O)CCNc1cncc(-c2cccc(/C=C/C(=O)O)c2)n1 [compound 16, (E)-3-{3-[6-(2-Carbamoyl-ethylamino)-pyrazin-2-yl]-phenyl}-acrylic acid] | 250 nM
CN1CCCN(c2cncc(-c3cccc(/C=C/C#N)c3)n2)CC1 [compound 42, (E)-3-{3-[6-(4-Methyl-[1,4]diazepan-1-yl)-pyrazin-2-yl]-phenyl}-acrylonitrile] | 13000 nM
NCCNc1cncc(-c2cccc(/C=C/C(=O)O)c2)n1 [compound 12, (E)-3-{3-[6-(2-Amino-ethylamino)-pyrazin-2-yl]-phenyl}-acrylic acid] | 140 nM
CN1CCN(c2cncc(-c3cccc(/C=C/C(=O)O)c3)n2)CC1 [compound 26, (E)-3-[3-(4-Methyl-3,4,5,6-tetrahydro-2H-[1,2′]bipyrazinyl-6′-yl)-phenyl]-acrylic acid] | 150 nM
CCNCCCNc1cncc(-c2cccc(/C=C/C(=O)O)c2)n1 [compound 11, (E)-3-{3-[6-(3-Ethylamino-propylamino)-pyrazin-2-yl]-phenyl}-acrylic acid] | 120 nM
NCC1CCN(c2cncc(-c3cccc(/C=C/C(=O)O)c3)n2)CC1 [compound 22, (E)-3-{3-[6-(4-Aminomethyl-piperidin-1-yl)-pyrazin-2-yl]-phenyl}-acrylic acid] | 21 nM
O=C(O)/C=C/c1cccc(-c2cncc(N3CCNCC3)n2)c1 [compound 28, (E)-3-[3-(3,4,5,6-Tetrahydro-2H-[1,2′]bipyrazinyl-6′-yl)-phenyl]-acrylic acid] | 200 nM
CNCCN(C)c1cncc(-c2cccc(/C=C/C(=O)O)c2)n1 [compound 13, (E)-3-(3-{6-[Methyl-(2-methylamino-ethyl)-amino]-pyrazin-2-yl}-phenyl)-acrylic acid] | 240 nM
CNCCCN(C)c1cncc(-c2cccc(/C=C/C(=O)O)c2)n1 [compound 10, (E)-3-(3-{6-[Methyl-(3-methylamino-propyl)-amino]-pyrazin-2-yl}-phenyl)-acrylic acid] | 110 nM

Second part, the molecule after the results:

IC50 | Structure (SMILES)
1400 nM | CN1CCCN(c2cncc(-c3cccc(CCC(=O)O)c3)n2)CC1 [compound 38, 3-[3-[6-(4-Methyl-[1,4]diazepan-1-yl)-pyrazin-2-yl]-phenyl]-propionic acid]
46 nM | CN1CCCN(c2cccc(-c3cccc(/C=C/C(=O)O)c3)n2)CC1 [compound 36, (E)-3-{3-[6-(4-Methyl-[1,4]diazepan-1-yl)-pyridin-2-yl]-phenyl}-acrylic acid]
3300 nM | O=C(O)/C=C/c1cccc(-c2cncc(N3CCCCCC3)n2)c1 [compound 35, (E)-3-[3-(6-Azepan-1-yl-pyrazin-2-yl)-phenyl]-acrylic acid]
880 nM | CC(=O)N1CCCN(c2cncc(-c3cccc(/C=C/C(=O)O)c3)n2)CC1 [compound 31, (E)-3-{3-[6-(4-Acetyl-[1,4]diazepan-1-yl)-pyrazin-2-yl]-phenyl}-acrylic acid]
89 nM | CN1CCCN(c2cncc(-c3cccc(/C=C/c4nnn[nH]4)c3)n2)CC1 [compound 43, 1-Methyl-4-(6-{3-[(E)-2-(1H-tetrazol-5-yl)-vinyl]-phenyl}-pyrazin-2-yl)-[1,4]diazepane]
1050 nM | O=C(O)/C=C/c1cccc(-c2cncc(N3CCC(O)CC3)n2)c1 [compound 32, (E)-3-{3-[6-(4-Hydroxy-piperidin-1-yl)-pyrazin-2-yl]-phenyl}-acrylic acid]
1200 nM | CN1CCCN(c2cncc(-c3cccc(/C=C/C(N)=O)c3)n2)CC1 [compound 40, (E)-3-{3-[6-(4-Methyl-[1,4]diazepan-1-yl)-pyrazin-2-yl]-phenyl}-acrylamide]
1700 nM | O=C(O)/C=C/c1cccc(-c2cncc(N3CCOCC3)n2)c1 [compound 34, (E)-3-[3-(6-Morpholin-4-yl-pyrazin-2-yl)-phenyl]-acrylic acid]
2400 nM | CN1CCCN(c2cncc(-c3cccc(/C=C/C(=O)NS(C)(=O)=O)c3)n2)CC1 [compound 44, N-((E)-3-{3-[6-(4-Methyl-perhydro-1,4-diazepin-1-yl)-pyrazin-2-yl]-phenyl}-acryloyl)-methanesulfonamide]
230 nM | O=C(O)/C=C/c1cccc(-c2cncc(N3CCCN(Cc4ccccc4)CC3)n2)c1 [compound 29, (E)-3-{3-[6-(4-Benzyl-[1,4]diazepan-1-yl)-pyrazin-2-yl]-phenyl}-acrylic acid]
270 nM | CN(C)C1CCN(c2cncc(-c3cccc(/C=C/C(=O)O)c3)n2)C1 (centres unmarked) [compound 30, (E)-3-{3-[6-(3-Dimethylamino-pyrrolidin-1-yl)-pyrazin-2-yl]-phenyl}-acrylic acid]
385 nM | CN1CCCN(c2cncc(-c3cncc(/C=C/C(=O)O)c3)n2)CC1 [compound 37, (E)-3-{5-[6-(4-Methyl-[1,4]diazepan-1-yl)-pyrazin-2-yl]-pyridin-3-yl}-acrylic acid]
2100 nM | O=C(O)/C=C/c1cccc(-c2cncc(N3CCC(CO)CC3)n2)c1 [compound 33, (E)-3-{3-[6-(4-Hydroxymethyl-piperidin-1-yl)-pyrazin-2-yl]-phenyl}-acrylic acid]
1400 nM | COC(=O)/C=C/c1cccc(-c2cncc(N3CCCN(C)CC3)n2)c1 [compound 39, (E)-3-{3-[6-(4-Methyl-[1,4]diazepan-1-yl)-pyrazin-2-yl]-phenyl}-acrylic acid methyl ester]

Same assay, conditions: percent of control at 5 μg/mL (final starting assay concentration of dose response)

POC @ 5 μg/mL | Structure (SMILES)
69POC @ 5 μg/mL | CN1CCCN(c2cncc(-c3cccc(/C=C/CO)c3)n2)CC1 [compound 41, (E)-3-{3-[6-(4-Methyl-[1,4]diazepan-1-yl)-pyrazin-2-yl]-phenyl}-prop-2-en-1-ol]
